{"source": "patent US20240325340A1", "about": "“ISOFORM SPECIFIC AGONISTS TARGETING AKT KINASE” (Thomas Jefferson University, priority 2021, published 2024)", "key": {"Akt2-LT WT": {"biological_target": "T1, Akt2-LT WT (Homo sapiens, UniProt P31751)", "T1 construct": "expressed in transfected cells; host or cells: H9C2 myoblasts", "T1 sequence (P31751 whole entry)": "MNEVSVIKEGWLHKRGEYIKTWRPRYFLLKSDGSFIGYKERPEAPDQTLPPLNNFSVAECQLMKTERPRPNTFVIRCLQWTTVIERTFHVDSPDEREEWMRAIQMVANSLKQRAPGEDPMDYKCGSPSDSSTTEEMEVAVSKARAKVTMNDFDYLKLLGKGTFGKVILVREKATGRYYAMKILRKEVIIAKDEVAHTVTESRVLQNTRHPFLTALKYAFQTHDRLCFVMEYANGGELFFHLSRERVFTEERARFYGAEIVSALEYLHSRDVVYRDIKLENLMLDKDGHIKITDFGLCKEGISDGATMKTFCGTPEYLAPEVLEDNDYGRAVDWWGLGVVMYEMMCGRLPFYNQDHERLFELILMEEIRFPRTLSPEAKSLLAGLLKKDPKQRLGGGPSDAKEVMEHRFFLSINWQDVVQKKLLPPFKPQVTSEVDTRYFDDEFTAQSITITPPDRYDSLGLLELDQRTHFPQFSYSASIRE", "assay": "Phosphorylation of heterologously expressed Akt2-LT WT in H9C2 myoblasts", "assay_type": "cell-based", "settings": "serum-free media, 2 hr", "description": "(§1) FIGS. 2A-2B: illustrate the finding that T625's position 6 analogues differentially activate Akt and induce cellular toxicity. FIG. 2A: To distinguish heterologous-expressed Akt from endogenous Akt, a 41 amino acid large tag containing the HA-epitope was fused with wild type Akt2 (Akt2-LT WT). H9C2 myoblasts over-expressing Akt2-LT WT were treated with insulin or indicated compounds in serum-free media for 2 hr. Phosphorylation of T309 and total Akt2 are shown. FIG. 2B: Cell images show A549 AT2 cell morphology after 24 hr of drug treatment."}, "A549 AT2 cell": {"test_system": "A549 AT2 cell", "assay": "A549 AT2 cell morphology after 24 hr of drug treatment", "assay_type": "cell-based, human", "settings": "A549 AT2 cells", "description": "as §1"}, "A549 cells": {"test_system": "A549 cells", "assay": "Cytotoxicity by release of lactate dehydrogenase (LDH) in A549 cells", "assay_type": "cell-based, human", "settings": "40 μM, 24 hours, serum-free media", "description": "Cytotoxicity was determined by the release of lactate dehydrogenase (LDH) into cell culture media. A549 cells were incubated with 40 μM of each compound for 24 hours in serum-free media (n=3 for each compound). FIG. 8B: A visual assessment of cell morphology after 24 hrs treatment with 40 μM of each compound in serum-free media. 100× images are shown."}, "Hacat cells [1]": {"test_system": "Hacat cells", "assay": "Cellular toxicity / cell morphology in Hacat cells after 24 hrs", "assay_type": "cell-based, human", "settings": "40 μM"}, "Hacat cells [2]": {"test_system": "Hacat cells", "assay": "Human keratinocyte migration (cell-free gap) assay", "assay_type": "cell-based", "settings": "40 μM, 22 hr, serum-starved", "description": "FIGS. 11A-11B illustrates the finding that Akt activators in human keratinocyte cell line induce VEGF secretion and enhanced cell migration. FIG. 11A: Human keratinocyte line, HaCat cells, was incubated with 20 μM of each Akt activators for 24 hours. Insulin (3.5 μg/ml) and IGF1 (100 ng/mL) treatment were used as positive control. […] HaCaT cells were plated into silicone insert molds with a […] defined cell-free gap (Ibidi) and serum-starved overnight. Then, the mold barrier was removed and cells were treated with 40 μM T620. After 22 hr, the gap spaces were imaged at 100×. Two images of control and four images of T620 treated gap spaces are shown."}, "Akt [3]": {"test_system": "Akt", "assay": "Mouse cardiac ischemia-reperfusion injury model, Akt activation in heart", "assay_type": "in vivo", "settings": "directly injected or intraperitoneally injected after ischemic-ligation", "description": "FIG. 13A: A schematic of ischemic-reperfusion procedure indicating drug injection time and heart harvest time. FIG. 13B: Illustrates immunoblots of pS473, Akt phospho-substrate, pPRAS40 and GAPDH in the WES auto-western system. After ischemic-ligation, T625 (0.8 μg in 20 μl PBS) were directly injected at three spots of exposed ventricular wall. Injected insulin was used as a control. FIG. 13C: Illustrates immunoblots of pT308, total Akt (tAkt) and GAPDH and quantified pT308/tAkt ratio. After ischemic-ligation, T620 and T625 were directly injected or intraperitoneally injected.\n(§2) A FlexiVent system (SCIREQ) was used to deliver Akt activator, T625, directly to mouse lung. This procedure closely mimics the clinical application of inhaled insulin. […] Akt activators were also administered in the setting of mouse cardiac ischemia-reperfusion injury model (FIGS. 13A-13C). T625 was directly injected into the left ventricular free wall at the time of ischemic ligation of exteriorized heart. Also, to mimic clinical use, (IP) Akt activators were intraperitoneally injected within 10 min after ischemia initiation. It was shown that both directly applied and intraperitoneally injected Akt activators activated Akt in the heart. Finally, a splinted murine excisional wound model that mimic human wound healing was used. […]"}, "Akt [4]": {"test_system": "Akt", "assay": "Splinted murine excisional skin wound model, topical treatment", "assay_type": "in vivo, mouse", "settings": "20 μL of 40 μM applied within the wound silicone circle, 20 min", "description": "FIGS. 14A-14B illustrate the use of an Akt activator as topical treatment for healing mouse skin wound. […] 20 μL of indicated compounds were applied within the skin wound silicone circle for 20 min. Wound tissues were harvested and blotted with anti-Akt pS473 and GAPDH using the Proteinsimple WES system. Growth factor (GF) mixture (insulin, PDGF and IGF1 growth factor) or 40 μM T620 in corn oil or in PBS as vehicles. […] Images of WT mouse skin wound after vehicle (0.7% DMSO in PBS) or 40 μM T620 treatment at Day 3. Wound images and hematoxylin sections showing wound edge and wound bed are shown. Scale bar=400 μm.\nas §2"}, "cells": {"test_system": "cells", "assay": "Cellular toxicity (cells not specified)", "assay_type": "cell-based"}, "recombinant pAkt1": {"biological_target": "recombinant pAkt1 (Homo sapiens, UniProt P31749)", "sequence (P31749 whole entry)": "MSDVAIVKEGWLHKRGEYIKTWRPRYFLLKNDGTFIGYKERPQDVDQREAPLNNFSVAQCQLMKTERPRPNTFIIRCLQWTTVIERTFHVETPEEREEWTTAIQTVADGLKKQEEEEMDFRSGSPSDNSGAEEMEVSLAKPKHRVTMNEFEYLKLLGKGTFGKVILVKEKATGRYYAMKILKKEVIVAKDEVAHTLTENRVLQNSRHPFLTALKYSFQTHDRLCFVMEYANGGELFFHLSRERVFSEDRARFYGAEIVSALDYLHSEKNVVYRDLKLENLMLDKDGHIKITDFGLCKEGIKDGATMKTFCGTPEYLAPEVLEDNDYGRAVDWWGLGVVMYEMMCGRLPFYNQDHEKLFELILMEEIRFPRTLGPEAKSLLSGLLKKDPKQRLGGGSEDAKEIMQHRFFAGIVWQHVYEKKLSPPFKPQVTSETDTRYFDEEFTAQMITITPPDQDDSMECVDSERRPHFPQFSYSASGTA", "assay": "Recombinant phospho-Akt dephosphorylation by PP2A or total cellular phosphatase extracts (immunoblot pT308)", "assay_type": "biochemical", "settings": "60 μM compound, 30 minutes at 30° C.", "description": "FIG. 1A: Recombinant phospho-Akt (50 ng) were pre-mixed with DMSO or with 40 μM 4H-Chromenes with carboxylate side chain (SC-79 and HA-14) or with 60 μM malononitrile side chain (T625) at 4° C. Then recombinant PP2A (70 ng PP2A-C) or total cellular phosphatase extracts were added and incubated for 30 minutes at 30° C. After incubation, protein extracts were subjected to immunoblot analysis using antibodies detecting phosphorylated Akt (T308), total Akt and PP2A catalytic subunit. FIG. 1B comprises a graph showing the percentage of Akt dephosphorylation at 30 minutes (Dephos. %) (n=6) *P<0.01 vs. DMSO."}, "[5]": {"test_system": "E17-Y18-I19 and R23-R25 mutated Akt kinase (Akt1-LT)", "assay": "pT308 phosphorylation of mutated Akt1-LT constructs in H9C2 cells", "assay_type": "cell-based", "settings": "2 μM insulin 15 minutes", "description": "FIGS. 3A-3D: illustrate a model of T625 C-6 interaction space within the Akt PH domain and biochemical validation of the model. FIG. 3A: Model of the Akt2 PH-domain bound to T625 where all residue numbering corresponds to the Akt2 sequence. The C-6 Cl group act as the most optimal structural mimetic of the phosphate's electrostatic interactions with Arg23 and surrounding residues. […] To distinguish heterologous-expressed Akt from endogenous Akt, a 41 amino acid large tag containing the HA-epitope was fused with Akt1 (Akt1-LT) and specific mutations were created by site-directed mutagenesis. H9C2 cells expressing the indicated mutant constructs were stimulated for 15 minutes with 2 μM insulin, then switch to serum-free medium with 30 μM T625 as indicated for 60 minutes. […] H9C2 cells expressing the indicated mutant constructs were stimulated for 15 minutes with 2 μM insulin, then switch to serum-free medium with 20 μM T625 as indicated for 90 minutes. Phosphorylation of T308 in Akt1-LT and endogenous Akt, HA and GAPDH loading control blots are shown. FIG. 3D: Graph of specific pT308 phosphorylation in the indicated Akt1-LT constructs with or without T625 treatment. N is indicated."}, "Akt [6]": {"test_system": "Akt", "assay": "Ceramide and cathepsin G blockade of insulin activation of Akt in H9C2 myoblasts", "assay_type": "cell-based", "settings": "H9C2 myoblasts, 30 μM T625 with insulin, 30 minutes", "description": "(§3) H9C2 myoblasts or neonatal rat myocytes were treated with neutrophil protease Cathepsin G (0.01 U/mL), 4 hr or with 100 μM C2-Ceramide (100 μM), 2 hr. Then cells were stimulated with insulin with or without 30 μM T625 for 30 minutes. Lysates were immunoblotted with the indicated antibodies."}, "Akt [7]": {"test_system": "Akt", "assay": "Ceramide and cathepsin G blockade of insulin activation of Akt in neonatal rat myocytes", "assay_type": "cell-based", "settings": "30 μM T625 with insulin, 30 minutes", "description": "as §3"}, "Akt [8]": {"test_system": "Akt", "assay": "Aerosolized inhalation (FlexiVent) Akt activation in mouse lung", "assay_type": "in vivo", "description": "8 week old (wk) wild type mice were deprived of food overnight. Anesthetized mice were intubated on the FlexiVent system and challenged with aerosolized inhaled insulin or T625 as indicated. Lung tissue was harvested 20 minutes after drug inhalation. Extracts were immunoblotted with indicated antibodies.\nA FlexiVent system (SCIREQ) was used to deliver Akt activator, T625, directly to mouse lung. This procedure closely mimics the clinical application of inhaled insulin. […] Akt activators were also administered in the setting of mouse cardiac ischemia-reperfusion injury model (FIGS. 13A-13C). T625 was directly injected into the left ventricular free wall at the time of ischemic ligation of exteriorized heart. Also, to mimic clinical use, (IP) Akt activators were intraperitoneally injected within 10 min after ischemia initiation. It was shown that both directly applied and intraperitoneally injected Akt activators activated Akt in the heart. Finally, a splinted murine excisional wound model that mimic human wound healing was used. Akt activators were placed directly into the wound ring, mimicking the clinical topical application of growth factors."}, "Compound stability": {"assay": "Compound stability", "assay_type": "physicochemical"}}, "note": "Entries after “also recorded” stand apart in the source; their conditions may differ.", "data": [{"smiles": "N#CC1=C(N)Oc2ccc([N+](=O)[O-])cc2C1C(C#N)C#N", "note": "(centres unmarked) [T620, 2-(2-amino-3-cyano-6-nitro-4H-chromen-4-yl)propanedinitrile]", "values": [{"measurement": "Akt activation in cells (phosphorylation of T309 of Akt2-LT WT)", "setting": "Akt2-LT WT", "value": "preserved Akt activation; also recorded: activate Akt"}, {"measurement": "cellular toxicity (cell morphology)", "setting": "A549 AT2 cell", "value": "greatly reduced toxicity"}, {"measurement": "cellular toxicity (LDH release)", "setting": "A549 cells", "value": "low toxicity; also recorded: failed to show significant cellular toxicity; also recorded: reduced cellular toxicity"}, {"measurement": "cellular toxicity", "setting": "Hacat cells [1]", "value": "failed to show significant cellular toxicity"}, {"measurement": "keratinocyte migration", "setting": "Hacat cells [2]", "value": "enhance human keratinocyte migration"}, {"measurement": "Akt activation in mouse heart during ischemia-reperfusion", "setting": "Akt [3]", "value": "enhanced Akt activation in mouse heart"}, {"measurement": "Akt activation (pS473) within mouse skin wounds", "setting": "Akt [4]", "value": "activated Akt within mouse skin wounds"}, {"measurement": "cellular toxicity", "setting": "cells", "value": "reduced toxicity"}]}, {"smiles": "N#CC1=C(N)Oc2ccc(Cl)cc2C1C(C#N)C#N", "note": "(centres unmarked) [T625, 2-(2-amino-6-chloro-3-cyano-4H-chromen-4-yl)propanedinitrile]", "values": [{"measurement": "block of recombinant pAkt1 dephosphorylation by PP2A and cellular phosphatases", "setting": "recombinant pAkt1", "value": "block recombinant pAkt1 dephosphorylation by PP2A and cellular phosphatases"}, {"measurement": "Akt activation in cells (phosphorylation of T309 of Akt2-LT WT)", "setting": "Akt2-LT WT", "value": "retaining Akt activation; also recorded: activate Akt"}, {"measurement": "effect on phosphorylation of mutated Akt kinase", "setting": "[5]; E17-Y18-I19 and R23-R25 mutants, then 30 μM T625 60 minutes", "value": "acts as an inhibitor"}, {"measurement": "effect on phosphorylation of mutated Akt kinase", "setting": "[5]; mutations in E17 and/or 119, then 20 μM T625 90 minutes", "value": "converting the T625 response from activation to inhibition"}, {"measurement": "rescue of ceramide and cathepsin G blockade of Akt activation by insulin", "setting": "Akt [6]", "value": "rescues ceramide and cathepsin G blockade of Akt activation"}, {"measurement": "rescue of ceramide and cathepsin G blockade of Akt activation by insulin", "setting": "Akt [7]", "value": "rescues ceramide and cathepsin G blockade of Akt activation"}, {"measurement": "Akt kinase activation in mouse lung", "setting": "Akt [8]; 60 μg, delivered directly to mouse lung by FlexiVent", "value": "retaining Akt activation; also recorded: robustly activated Akt kinase in mouse lung"}, {"measurement": "insulin sensitivity in vivo", "setting": "Akt [8]; aerosolized inhaled, lung tissue harvested 20 minutes after inhalation", "value": "enhanced insulin sensitivity"}, {"measurement": "Akt activation in mouse lung tissue in combination with insulin", "setting": "Akt [8]; suboptimal dose 15 μg with suboptimal insulin dose 5 μg", "value": "cooperated with suboptimal insulin dose (5 μg) to activate Akt in mouse lung tissue"}, {"measurement": "Akt activation in mouse heart during ischemia-reperfusion", "setting": "Akt [3]", "value": "enhanced Akt activation in mouse heart"}, {"measurement": "compound stability", "setting": "Compound stability", "value": "enhanced compound stability"}, {"measurement": "cellular toxicity", "setting": "cells", "value": "dramatically reduced cellular toxicity"}]}]}
